As a reminder, the IC50 is the concentration that gives 50% inhibition. A high value points to weaker potency.

One experiment has as its system LNCaP cells. Kind of experiment: LNCaP cell viability assay (CellTiter-Glo). It is filed as cell-based. The conditions noted are these: Homo sapiens, 72 h; LNCaP prostate cancer cell viability inhibition, 3 days, CellTiter-Glo (Table 3). The procedure, abridged: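 Three-day treatment of LNCaP cells (5000 per well) across a 12-point, 3-fold dilution series starting at 10 μM. ATP luminescence (CellTiter-Glo) relative to untreated controls gave dose-response curves fitted nonlinearly for IC50.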
(In ATP-based viability assays light output follows the ATP content of the culture.)

A further experiment concerns the target P300 (Homo sapiens, UniProt Q09472). Kind of experiment: Immunoblotting of P300 protein levels in LNCaP or 22RV1 cells. The experiment is classed as cell-based. Details: LNCaP or 22RV1 cells that express CBP/P300 proteins were treated with GNE-781 or the bivalent compounds; endogenous in cells; host or cells: LNCaP (clone FGC) or 22RV1 cells. The conditions noted are these: percentage of inhibition of p300 at 10 nM (Table 3); read-out: Degradation (10 nM). The procedure, abridged: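 P300/CBP levels quantified by chemiluminescent immunoblot band densitometry, normalized against tubulin or vinculin loading controls. Lysates came from LNCaP or 22RV1 cells exposed to compounds or DMSO vehicle for indicated times.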
Background: Immunoblotting shows a protein as a band on a membrane.

Structures are written as SMILES.

Chain of P300 (Q09472 whole entry): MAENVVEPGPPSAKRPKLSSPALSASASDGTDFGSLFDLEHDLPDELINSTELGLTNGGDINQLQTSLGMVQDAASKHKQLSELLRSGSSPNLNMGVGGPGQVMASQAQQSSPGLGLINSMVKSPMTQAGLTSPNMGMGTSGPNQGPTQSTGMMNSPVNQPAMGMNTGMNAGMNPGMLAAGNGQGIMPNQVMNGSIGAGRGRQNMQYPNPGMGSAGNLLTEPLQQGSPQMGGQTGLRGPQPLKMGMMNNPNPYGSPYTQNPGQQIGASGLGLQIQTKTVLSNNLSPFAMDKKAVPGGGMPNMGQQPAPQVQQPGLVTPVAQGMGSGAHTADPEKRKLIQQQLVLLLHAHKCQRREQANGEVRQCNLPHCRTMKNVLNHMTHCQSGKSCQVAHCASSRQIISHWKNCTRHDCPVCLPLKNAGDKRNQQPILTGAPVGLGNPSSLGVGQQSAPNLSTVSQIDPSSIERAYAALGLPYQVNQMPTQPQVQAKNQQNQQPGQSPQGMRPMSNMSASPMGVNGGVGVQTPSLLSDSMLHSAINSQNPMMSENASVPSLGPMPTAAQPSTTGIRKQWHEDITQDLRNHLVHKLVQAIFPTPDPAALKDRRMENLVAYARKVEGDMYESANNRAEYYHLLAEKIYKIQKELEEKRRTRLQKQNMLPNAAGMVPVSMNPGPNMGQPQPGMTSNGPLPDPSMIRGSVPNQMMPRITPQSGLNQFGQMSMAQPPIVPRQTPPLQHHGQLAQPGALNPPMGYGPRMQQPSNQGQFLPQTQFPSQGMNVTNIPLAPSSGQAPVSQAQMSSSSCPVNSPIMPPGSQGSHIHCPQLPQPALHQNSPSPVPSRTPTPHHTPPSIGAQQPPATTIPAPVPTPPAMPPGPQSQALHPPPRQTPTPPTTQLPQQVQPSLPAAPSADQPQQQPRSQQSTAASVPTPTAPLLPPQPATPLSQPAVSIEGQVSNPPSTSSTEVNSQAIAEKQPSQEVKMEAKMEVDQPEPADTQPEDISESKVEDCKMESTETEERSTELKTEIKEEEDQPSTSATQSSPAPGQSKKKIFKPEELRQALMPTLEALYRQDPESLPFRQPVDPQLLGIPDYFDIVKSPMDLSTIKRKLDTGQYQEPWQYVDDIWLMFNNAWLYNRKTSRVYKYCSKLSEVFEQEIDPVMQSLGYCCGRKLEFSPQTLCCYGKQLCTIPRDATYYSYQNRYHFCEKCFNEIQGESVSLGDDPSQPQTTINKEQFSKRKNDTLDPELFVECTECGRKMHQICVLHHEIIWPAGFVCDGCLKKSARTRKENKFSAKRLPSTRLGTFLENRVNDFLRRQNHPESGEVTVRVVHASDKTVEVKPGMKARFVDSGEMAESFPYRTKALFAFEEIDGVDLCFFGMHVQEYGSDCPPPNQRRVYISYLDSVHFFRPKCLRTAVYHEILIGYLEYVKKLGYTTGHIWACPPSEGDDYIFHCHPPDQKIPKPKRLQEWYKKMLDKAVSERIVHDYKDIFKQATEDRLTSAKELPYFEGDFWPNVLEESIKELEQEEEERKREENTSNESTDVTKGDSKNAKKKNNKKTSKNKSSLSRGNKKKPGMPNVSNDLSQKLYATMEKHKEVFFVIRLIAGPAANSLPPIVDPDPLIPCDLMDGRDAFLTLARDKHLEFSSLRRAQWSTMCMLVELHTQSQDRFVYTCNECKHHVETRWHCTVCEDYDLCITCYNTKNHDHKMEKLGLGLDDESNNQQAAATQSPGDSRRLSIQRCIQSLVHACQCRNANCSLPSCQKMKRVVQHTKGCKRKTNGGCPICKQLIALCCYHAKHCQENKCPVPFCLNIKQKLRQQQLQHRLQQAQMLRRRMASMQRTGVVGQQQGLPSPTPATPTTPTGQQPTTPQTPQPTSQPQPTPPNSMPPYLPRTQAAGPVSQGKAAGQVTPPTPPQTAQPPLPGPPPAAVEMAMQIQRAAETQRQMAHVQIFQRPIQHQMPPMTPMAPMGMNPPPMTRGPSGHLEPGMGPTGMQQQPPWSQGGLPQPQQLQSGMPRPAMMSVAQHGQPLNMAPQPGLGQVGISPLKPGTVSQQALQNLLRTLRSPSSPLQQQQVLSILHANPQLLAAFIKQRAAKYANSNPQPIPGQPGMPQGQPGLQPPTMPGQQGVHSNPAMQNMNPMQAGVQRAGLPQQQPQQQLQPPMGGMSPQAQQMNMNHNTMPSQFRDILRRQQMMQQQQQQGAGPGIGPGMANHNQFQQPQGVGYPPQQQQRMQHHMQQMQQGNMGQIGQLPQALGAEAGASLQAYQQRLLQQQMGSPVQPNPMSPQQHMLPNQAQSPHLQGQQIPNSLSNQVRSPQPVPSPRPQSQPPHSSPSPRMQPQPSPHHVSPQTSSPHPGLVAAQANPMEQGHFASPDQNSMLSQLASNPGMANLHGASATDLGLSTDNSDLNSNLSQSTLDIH

Take `CC(=O)N1CCc2c(c(N3CCCc4cc(-c5cnn(C)c5)c(C(F)F)cc43)nn2C2CCN(CCCCCCOc3cccc4c3C(=O)N(C3CCC(=O)NC3=O)C4=O)CC2)C1` (stereo not shown) [P-113, 4-((6-(4-(5-acetyl-3-(7-(difluoromethyl)-6-(1-methyl-1H-pyrazol-4-yl)-3,4-dihydroquinolin-1(2H)-yl)-4,5,6,7-tetrahydro-1H-pyrazolo[4,3-c]pyridin-1-yl)piperidin-1-yl)hexyl)oxy)-2-(2,6-dioxopiperidin-3-yl)isoindoline-1,3-dione]: the concentration for half-maximal inhibition (IC50) with LNCaP cells was 14.8 nM. The inhibition at 0.01 µM at P300 is over 80%.
`CNC(=O)N1CCc2c(c(N3CCCc4cc(-c5cnn(C)c5)c(C(F)F)cc43)nn2C2CCN(C(=O)CCCCCCNc3cccc4c3n(C)c(=O)n4C3CCC(=O)NC3=O)CC2)C1` (stereo not shown) [P-114, 3-(7-(Difluoromethyl)-6-(1-methyl-1H-pyrazol-4-yl)-3,4-dihydroquinolin-1(2H)-yl)-1-(1-(7-((1-(2,6-dioxopiperidin-3-yl)-3-methyl-2-oxo-2,3-dihydro-1H-benzo[d]imidazol-4-yl)amino)heptanoyl)piperidin-4-yl)-N-methyl-1,4,6,7-tetrahydro-5H-pyrazolo[4,3-c]pyridine-5-carboxamide] returned a half-maximal inhibitory concentration (IC50) in the experiment with LNCaP cells of 877 nM. Further, at P300, the inhibition at 0.01 µM is 20 to 50%.
For the compound `CNC(=O)N1CCc2c(c(N3CCCc4cc(-c5cnn(C)c5)c(C(F)F)cc43)nn2C2CCN(C(=O)CCCCCNc3ccc4c(c3)n(C)c(=O)n4C3CCC(=O)NC3=O)CC2)C1` (stereo not shown) [P-115, 3-(7-(difluoromethyl)-6-(1-methyl-1H-pyrazol-4-yl)-3,4-dihydroquinolin-1(2H)-yl)-1-(1-(6-((1-(2,6-dioxopiperidin-3-yl)-3-methyl-2-oxo-2,3-dihydro-1H-benzo[d]imidazol-5-yl)amino)hexanoyl)piperidin-4-yl)-N-methyl-1,4,6,7-tetrahydro-5H-pyrazolo[4,3-c]pyridine-5-carboxamide], the concentration for half-maximal inhibition (IC50) in the experiment with LNCaP cells amounted to 7.1 nM. Besides, on P300, the inhibition at 0.01 µM is over 80%.
For `CC(=O)N1CCc2c(c(N3CCCc4cc(-c5cnn(C)c5)c(C(F)F)cc43)nn2C2CCN(C(=O)CCCCCNc3ccc4c(c3)n(C)c(=O)n4C3CCC(=O)NC3=O)CC2)C1` (stereo not shown) [P-116, 3-(5-((6-(4-(5-acetyl-3-(7-(difluoromethyl)-6-(1-methyl-1H-pyrazol-4-yl)-3,4-dihydroquinolin-1(2H)-yl)-4,5,6,7-tetrahydro-1H-pyrazolo[4,3-c]pyridin-1-yl)piperidin-1-yl)-6-oxohexyl)amino)-3-methyl-2-oxo-2,3-dihydro-1H-benzo[d]imidazol-1-yl)piperidine-2,6-dione] the same measures were 9.6 nM and over 80%.
In the experiment on LNCaP cells, `CC(=O)N1CCc2c(c(N3CCCc4cc(-c5cnn(C)c5)c(C(F)F)cc43)nn2C2CCN(C(=O)CCCCCOc3cccc4c3C(=O)N(C3CCC(=O)NC3=O)C4=O)CC2)C1` (stereo not shown) [P-117, 4-((6-(4-(5-Acetyl-3-(7-(difluoromethyl)-6-(1-methyl-1H-pyrazol-4-yl)-3,4-dihydroquinolin-1(2H)-yl)-4,5,6,7-tetrahydro-1H-pyrazolo[4,3-c]pyridin-1-yl)piperidin-1-yl)-6-oxohexyl)oxy)-2-(2,6-dioxopiperidin-3-yl)isoindoline-1,3-dione] had an IC50 of 41.2 nM. In addition, the inhibition at 0.01 µM at P300 is over 80%.
For `CC(=O)N1CCc2c(c(N3CCCc4cc(-c5cnn(C)c5)c(C(F)F)cc43)nn2C2CCN(C(=O)CCCCCCc3cccc4c3C(=O)N(C3CCC(=O)NC3=O)C4=O)CC2)C1` (stereo not shown) [P-118, 4-(7-(4-(5-Acetyl-3-(7-(difluoromethyl)-6-(1-methyl-1H-pyrazol-4-yl)-3,4-dihydroquinolin-1(2H)-yl)-4,5,6,7-tetrahydro-1H-pyrazolo[4,3-c]pyridin-1-yl)piperidin-1-yl)-7-oxoheptyl)-2-(2,6-dioxopiperidin-3-yl)isoindoline-1,3-dione] the same measures were 17.8 nM and 20 to 50%.
Take `CC(=O)N1CCc2c(c(N3CCCc4cc(-c5cnn(C)c5)c(C(F)F)cc43)nn2C2CCN(C(=O)CCCCCCCNc3ccc4c(c3)C(=O)N(C3CCC(=O)NC3=O)C4=O)CC2)C1` (stereo not shown) [P-119, 5-((8-(4-(5-acetyl-3-(7-(difluoromethyl)-6-(1-methyl-1H-pyrazol-4-yl)-3,4-dihydroquinolin-1(2H)-yl)-4,5,6,7-tetrahydro-1H-pyrazolo[4,3-c]pyridin-1-yl)piperidin-1-yl)-8-oxooctyl)amino)-2-(2,6-dioxopiperidin-3-yl)isoindoline-1,3-dione]: in the experiment on LNCaP cells, half-maximal inhibition (IC50) was put at 1.7 nM. For the same compound, the inhibition at 0.01 µM on P300 was over 80%.
For the compound `CC(=O)N1CCc2c(c(N3CCCc4cc(-c5cnn(C)c5)c(C(F)F)cc43)nn2C2CCN(C(=O)CCCCCNc3ccc4c(c3)C(=O)N(C3CCC(=O)NC3=O)C4=O)CC2)C1` (stereo not shown) [P-120, 5-((6-(4-(5-acetyl-3-(7-(difluoromethyl)-6-(1-methyl-1H-pyrazol-4-yl)-3,4-dihydroquinolin-1(2H)-yl)-4,5,6,7-tetrahydro-1H-pyrazolo[4,3-c]pyridin-1-yl)piperidin-1-yl)-6-oxohexyl)amino)-2-(2,6-dioxopiperidin-3-yl)isoindoline-1,3-dione], the IC50 with LNCaP cells was determined as 9.4 nM. Moreover, on P300, the inhibition at 0.01 µM was over 80%.
In the experiment on LNCaP cells, `CC(=O)N1CCc2c(c(N3CCCc4cc(-c5cnn(C)c5)c(C(F)F)cc43)nn2C2CCN(C(=O)CCCCCOc3cccc4c3CN(C3CCC(=O)NC3=O)C4=O)CC2)C1` (stereo not shown) [P-121, 3-(4-((6-(4-(5-Acetyl-3-(7-(difluoromethyl)-6-(1-methyl-1H-pyrazol-4-yl)-3,4-dihydroquinolin-1(2H)-yl)-4,5,6,7-tetrahydro-1H-pyrazolo[4,3-c]pyridin-1-yl)piperidin-1-yl)-6-oxohexyl)oxy)-1-oxoisoindolin-2-yl)piperidine-2,6-dione] returned a 50% inhibitory concentration (IC50) of 28.8 nM. For the same compound, the inhibition at 0.01 µM at P300 was over 80%.
On to `CC(=O)N1CCc2c(c(N3CCCc4cc(-c5cnn(C)c5)c(C(F)F)cc43)nn2C2CCN(C(=O)CCCCC#Cc3cccc4c3CN(C3CCC(=O)NC3=O)C4=O)CC2)C1` (stereo not shown) [P-122, 3-(4-(7-(4-(5-Acetyl-3-(7-(difluoromethyl)-6-(1-methyl-1H-pyrazol-4-yl)-3,4-dihydroquinolin-1(2H)-yl)-4,5,6,7-tetrahydro-1H-pyrazolo[4,3-c]pyridin-1-yl)piperidin-1-yl)-7-oxohept-1-yn-1-yl)-1-oxoisoindolin-2-yl)piperidine-2,6-dione], for which, in the experiment with LNCaP cells, half-maximal inhibition (IC50) required 84.4 nM. The inhibition at 0.01 µM on P300 is over 80%.
In the case of `CC(=O)N1CCc2c(c(N3CCCc4cc(-c5cnn(C)c5)c(C(F)F)cc43)nn2C2CCN(C(=O)CN3CCC(CNc4cccc5c4C(=O)N(C4CCC(=O)NC4=O)C5=O)CC3)CC2)C1` (stereo not shown) [P-123, 4-(((1-(2-(4-(5-Acetyl-3-(7-(difluoromethyl)-6-(1-methyl-1H-pyrazol-4-yl)-3,4-dihydroquinolin-1(2H)-yl)-4,5,6,7-tetrahydro-1H-pyrazolo[4,3-c]pyridin-1-yl)piperidin-1-yl)-2-oxoethyl)piperidin-4-yl)methyl)amino)-2-(2,6-dioxopiperidin-3-yl)isoindoline-1,3-dione], half-maximal inhibition with LNCaP cells (IC50) was put at 20.3 nM. Moreover, on P300, the inhibition at 0.01 µM was over 80%.
In turn, `CC(=O)N1CCc2c(c(N3CCCc4cc(-c5cnn(C)c5)c(C(F)F)cc43)nn2C2CCN(CCCNC(=O)CNc3cccc4c3C(=O)N(C3CCC(=O)NC3=O)C4=O)CC2)C1` (stereo not shown) [P-124, N-(3-(4-(5-Acetyl-3-(7-(difluoromethyl)-6-(1-methyl-1H-pyrazol-4-yl)-3,4-dihydroquinolin-1(2H)-yl)-4,5,6,7-tetrahydro-1H-pyrazolo[4,3-c]pyridin-1-yl)piperidin-1-yl)propyl)-2-((2-(2,6-dioxopiperidin-3-yl)-1,3-dioxoisoindolin-4-yl)amino)acetamide] gave an IC50 with LNCaP cells of over 10000 nM. Besides, on P300, the inhibition at 0.01 µM was under 20%.
Taken in the same sequence, the figures for `CNC(=O)N1CCc2c(c(N3CCCc4cc(-c5cnn(C)c5)c(C(F)F)cc43)nn2C2CCN(C(=O)CCCCNc3ccc4c(c3)n(C)c(=O)n4C3CCC(=O)NC3=O)CC2)C1` (stereo not shown) [P-125, 3-(7-(Difluoromethyl)-6-(1-methyl-1H-pyrazol-4-yl)-3,4-dihydroquinolin-1(2H)-yl)-1-(1-(5-((1-(2,6-dioxopiperidin-3-yl)-3-methyl-2-oxo-2,3-dihydro-1H-benzo[d]imidazol-5-yl)amino)pentanoyl)piperidin-4-yl)-N-methyl-1,4,6,7-tetrahydro-5H-pyrazolo[4,3-c]pyridine-5-carboxamide] were 42.1 nM and over 80%.
For the compound `CC(=O)N1CCc2c(c(N3CCCc4cc(-c5cnn(C)c5)c(C(F)F)cc43)nn2C2CCN(C(=O)CCCCNc3ccc4c(c3)n(C)c(=O)n4C3CCC(=O)NC3=O)CC2)C1` (stereo not shown) [P-126, 3-(5-((5-(4-(5-Acetyl-3-(7-(difluoromethyl)-6-(1-methyl-1H-pyrazol-4-yl)-3,4-dihydroquinolin-1(2H)-yl)-4,5,6,7-tetrahydro-1H-pyrazolo[4,3-c]pyridin-1-yl)piperidin-1-yl)-5-oxopentyl)amino)-3-methyl-2-oxo-2,3-dihydro-1H-benzo[d]imidazol-1-yl)piperidine-2,6-dione], the IC50 in the experiment on LNCaP cells is 94 nM. Besides, the inhibition at 0.01 µM on P300 is over 80%.

The values are drawn from patent US20230073777A1, “CYCLIC-AMP RESPONSE ELEMENT BINDING PROTEIN (CBP) AND/OR ADENOVIRAL E1A BINDING PROTEIN OF 300 KDA (P300) DEGRADATION COMPOUNDS AND METHODS OF USE” (CULLGEN (SHANGHAI), INC., priority 2019, published 2023).
